Data: ChEMBL document CHEMBL1201862, “PubChem BioAssay data set” (2004)
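In this assay, cells in 96-well plates receive the compound at five concentrations for 48 hours. Endpoints are linearly interpolated between the surrounding concentrations. GI50 is the concentration that inhibits growth by half.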 Calls of active or inactive are those of the source. Cut-off read from the data, not from the text of the source: active = GI50 up to about 1.1 µM and inactive = higher.

Experiments:
Experiment in all cases: inhibition of tumour cell growth, NCI panel, 48 h
SK-MEL-2 = system: SK-MEL-2
SR = system: SR
OVCAR-5 = system: OVCAR-5
M14 = system: M14
PC-3 = system: PC-3
A549 = system: A549
COLO 205 = system: COLO 205
DU-145 = system: DU-145
BT-549 = system: BT-549
SF-268 = system: SF-268
MOLT-4 = system: MOLT-4
MDA-MB-231 = system: MDA-MB-231
TK-10 = system: TK-10
MDA-MB-435 = system: MDA-MB-435
HL-60 = system: HL-60
A498 = system: A498
MDA-N = system: MDA-N
MCF7 = system: MCF7
NCI-H460 = system: NCI-H460
SNB-19 = system: SNB-19
HCC 2998 = system: HCC 2998
EKVX = system: EKVX
NCI-H522 = system: NCI-H522
SK-OV-3 = system: SK-OV-3
SK-MEL-28 = system: SK-MEL-28
SNB-75 = system: SNB-75
NCI/ADR-RES = system: NCI/ADR-RES
NCI-H23 = system: NCI-H23
UO-31 = system: UO-31
Hs-578T = system: Hs-578T
Malme-3M = system: Malme-3M
KM12 = system: KM12
786-0 = system: 786-0
SN12C = system: SN12C
HT-29 = system: HT-29
LOX IMVI = system: LOX IMVI
SK-MEL-5 = system: SK-MEL-5
SF-539 = system: SF-539
RPMI-8226 = system: RPMI-8226
HOP-92 = system: HOP-92
U-251 = system: U-251
SW-620 = system: SW-620
UACC-62 = system: UACC-62
CAKI-1 = system: CAKI-1
UACC-257 = system: UACC-257
HCT-116 = system: HCT-116
OVCAR-8 = system: OVCAR-8
CCRF-CEM = system: CCRF-CEM
ACHN = system: ACHN
HOP-62 = system: HOP-62
OVCAR-3 = system: OVCAR-3
IGROV-1 = system: IGROV-1
T47D = system: T47D
SF-295 = system: SF-295
HCT-15 = system: HCT-15
K562 = system: K562
RXF 393 = system: RXF 393
NCI-H226 = system: NCI-H226
OVCAR-4 = system: OVCAR-4

## COc1cc(/C=C2\N=C(c3ccccc3)N(c3nc4c(OC)ccc(OC)c4s3)C2=O)ccc1O
SK-MEL-2
  GI50: 35.5 µM (inactive)
SR
  GI50: 30 µM (inactive)
OVCAR-5
  GI50: > 100 µM (inactive)
M14
  GI50: 88.5 µM (inactive)
PC-3
  GI50: 32.4 µM (inactive)
A549
  GI50: 69.3 µM (inactive)
COLO 205
  GI50: 96.8 µM (inactive)
DU-145
  GI50: 28.8 µM (inactive)
BT-549
  GI50: 96.4 µM (inactive)
SF-268
  GI50: 39.1 µM (inactive)
MOLT-4
  GI50: 16.7 µM (inactive)
MDA-MB-231
  GI50: 45.7 µM (inactive)
TK-10
  GI50: 58.1 µM (inactive)
MDA-MB-435
  GI50: 20.1 µM (inactive)
HL-60
  GI50: 36.6 µM (inactive)
A498
  GI50: > 100 µM (inactive)
MDA-N
  GI50: 24.1 µM (inactive)
MCF7
  GI50: 17.3 µM (inactive)
NCI-H460
  GI50: 51.4 µM (inactive)
SNB-19
  GI50: > 100 µM (inactive)
HCC 2998
  GI50: 33.8 µM (inactive)
EKVX
  GI50: > 100 µM (inactive)
NCI-H522
  GI50: 31.1 µM (inactive)
SK-OV-3
  GI50: > 100 µM (inactive)
SK-MEL-28
  GI50: > 100 µM (inactive)
SNB-75
  GI50: 8.34 µM (inactive)
NCI/ADR-RES
  GI50: > 100 µM (inactive)
NCI-H23
  GI50: > 100 µM (inactive)
UO-31
  GI50: 76.7 µM (inactive)
Hs-578T
  GI50: 48.8 µM (inactive)
Malme-3M
  GI50: 85.7 µM (inactive)
KM12
  GI50: 51.2 µM (inactive)
786-0
  GI50: 39.4 µM (inactive)
SN12C
  GI50: > 100 µM (inactive)
HT-29
  GI50: > 100 µM (inactive)
LOX IMVI
  GI50: 24 µM (inactive)
SK-MEL-5
  GI50: 54.8 µM (inactive)
SF-539
  GI50: 57.9 µM (inactive)
RPMI-8226
  GI50: 23.1 µM (inactive)
HOP-92
  GI50: 35.6 µM (inactive)
U-251
  GI50: 29.9 µM (inactive)
SW-620
  GI50: 42.2 µM (inactive)
UACC-62
  GI50: 33 µM (inactive)
CAKI-1
  GI50: > 100 µM (inactive)
UACC-257
  GI50: 38 µM (inactive)
HCT-116
  GI50: 95.9 µM (inactive)
OVCAR-8
  GI50: 30.8 µM (inactive)
CCRF-CEM
  GI50: 28.1 µM (inactive)
ACHN
  GI50: 59.2 µM (inactive)
HOP-62
  GI50: 90.8 µM (inactive)
OVCAR-3
  GI50: 37.1 µM (inactive)
IGROV-1
  GI50: 46.8 µM (inactive)
T47D
  GI50: 5.47 µM (inactive)
SF-295
  GI50: 79.1 µM (inactive)
HCT-15
  GI50: 70.1 µM
K562
  GI50: 18.1 µM (inactive)
RXF 393
  GI50: 11.1 µM (inactive)

## COc1ccc(NCC(=O)Nn2c(-c3ccccc3)nc3ccccc3c2=O)cc1
SR
  GI50: 35.8 µM (inactive)
OVCAR-5
  GI50: > 100 µM (inactive)
M14
  GI50: 41.3 µM (inactive)
PC-3
  GI50: 35.6 µM (inactive)
A549
  GI50: 53.7 µM (inactive)
COLO 205
  GI50: 37.2 µM (inactive)
DU-145
  GI50: > 100 µM (inactive)
BT-549
  GI50: 23.3 µM (inactive)
SF-268
  GI50: 36.2 µM (inactive)
MOLT-4
  GI50: 18.4 µM (inactive)
MDA-MB-231
  GI50: 19 µM (inactive)
TK-10
  GI50: > 100 µM (inactive)
MDA-MB-435
  GI50: 51.8 µM (inactive)
HL-60
  GI50: 42.3 µM (inactive)
A498
  GI50: 23.3 µM (inactive)
MDA-N
  GI50: 63.4 µM (inactive)
MCF7
  GI50: 18.2 µM (inactive)
NCI-H226
  GI50: > 100 µM (inactive)
NCI-H460
  GI50: 51.1 µM (inactive)
SNB-19
  GI50: 50.2 µM (inactive)
HCC 2998
  GI50: 77.6 µM (inactive)
EKVX
  GI50: 69.2 µM (inactive)
NCI-H522
  GI50: > 10 µM (inactive)
SK-OV-3
  GI50: > 100 µM (inactive)
SK-MEL-28
  GI50: 74.5 µM (inactive)
SNB-75
  GI50: 44.4 µM (inactive)
NCI/ADR-RES
  GI50: 25.2 µM (inactive)
NCI-H23
  GI50: 37.2 µM (inactive)
UO-31
  GI50: > 100 µM (inactive)
OVCAR-4
  GI50: 33.7 µM (inactive)
Hs-578T
  GI50: 28.1 µM (inactive)
Malme-3M
  GI50: 30 µM (inactive)
KM12
  GI50: 70.8 µM (inactive)
786-0
  GI50: 25.6 µM (inactive)
SN12C
  GI50: 36.6 µM (inactive)
HT-29
  GI50: 32.4 µM (inactive)
LOX IMVI
  GI50: 19.6 µM (inactive)
SK-MEL-5
  GI50: 14.8 µM (inactive)
SF-539
  GI50: 39.2 µM (inactive)
RPMI-8226
  GI50: 24.2 µM (inactive)
HOP-92
  GI50: 25.4 µM (inactive)
U-251
  GI50: 28.7 µM (inactive)
SW-620
  GI50: 28.2 µM (inactive)
UACC-62
  GI50: 14.1 µM (inactive)
UACC-257
  GI50: 52.2 µM (inactive)
HCT-116
  GI50: > 10 µM (inactive)
OVCAR-8
  GI50: 31.9 µM (inactive)
CCRF-CEM
  GI50: 24.2 µM (inactive)
ACHN
  GI50: 38.4 µM (inactive)
HOP-62
  GI50: 86.1 µM (inactive)
OVCAR-3
  GI50: 60.7 µM (inactive)
IGROV-1
  GI50: 27 µM (inactive)
T47D
  GI50: 29.9 µM (inactive)
SF-295
  GI50: > 100 µM (inactive)
HCT-15
  GI50: 54 µM
K562
  GI50: 24.5 µM (inactive)
RXF 393
  GI50: > 10 µM (inactive)
